Results on 24 compounds are retold here after patent US20250221998A1, “DISCOVERY OF COVALENT EGFR INHIBITOR THROUGH CYSTEINE 775” (Dana-Farber Cancer Institute, Inc., priority 2022, published 2025).

In assay [1] the target is EGFR mutant L858R Ba/F3 cells (Homo sapiens, UniProt P00533, L858R, cells depend on it). As to the kind of experiment: Ba/F3 cell proliferation (Cell Titer Glo), EGFR L858R. Format: cell-based, murine. The conditions noted are these: 72 hours exposure, read-out: L858R BaF3 (μM), inhibitory activity against EGFR mutants. An excerpt: (§1) The EGFR mutant L858R Ba/F3 cells have been previously described (Zhou, W., et al. Nature 462, 2009, 1070-1074). The EGFR C797S and C775S mutations were introduced via site directed mutagenesis using the Quick Change Site-Directed Mutagenesis kit into a vector containing EGFR L858R mutation (Stratagene; La Jolla, CA) according to the manufacturer's instructions. All constructs were confirmed by DNA sequencing. The constructs were then shuttled into the retroviral vector JP1540 by either using the Cre-recombination system (Agilent Technologies, Santa Clara, CA) or the In-fusion HD Cloning kit (Takara Bio USA, Inc.; Mountain view, CA). Ba/F3 cells were then infected with retrovirus per standard protocols, as described previously (Zhou, et al, Nature 2009). Stable clones were obtained by selection in puromycin (2 ug/ml). All BaF/3 mutant cells were maintained in RPMI 1640 (Cellgro; Mediatech Inc., Herndon, CA) supplemented with 10% FBS, 100 units/mL penicillin, 100 units/mL streptomycin.
Sequence of EGFR mutant L858R Ba/F3 cells (P00533 whole entry L858R): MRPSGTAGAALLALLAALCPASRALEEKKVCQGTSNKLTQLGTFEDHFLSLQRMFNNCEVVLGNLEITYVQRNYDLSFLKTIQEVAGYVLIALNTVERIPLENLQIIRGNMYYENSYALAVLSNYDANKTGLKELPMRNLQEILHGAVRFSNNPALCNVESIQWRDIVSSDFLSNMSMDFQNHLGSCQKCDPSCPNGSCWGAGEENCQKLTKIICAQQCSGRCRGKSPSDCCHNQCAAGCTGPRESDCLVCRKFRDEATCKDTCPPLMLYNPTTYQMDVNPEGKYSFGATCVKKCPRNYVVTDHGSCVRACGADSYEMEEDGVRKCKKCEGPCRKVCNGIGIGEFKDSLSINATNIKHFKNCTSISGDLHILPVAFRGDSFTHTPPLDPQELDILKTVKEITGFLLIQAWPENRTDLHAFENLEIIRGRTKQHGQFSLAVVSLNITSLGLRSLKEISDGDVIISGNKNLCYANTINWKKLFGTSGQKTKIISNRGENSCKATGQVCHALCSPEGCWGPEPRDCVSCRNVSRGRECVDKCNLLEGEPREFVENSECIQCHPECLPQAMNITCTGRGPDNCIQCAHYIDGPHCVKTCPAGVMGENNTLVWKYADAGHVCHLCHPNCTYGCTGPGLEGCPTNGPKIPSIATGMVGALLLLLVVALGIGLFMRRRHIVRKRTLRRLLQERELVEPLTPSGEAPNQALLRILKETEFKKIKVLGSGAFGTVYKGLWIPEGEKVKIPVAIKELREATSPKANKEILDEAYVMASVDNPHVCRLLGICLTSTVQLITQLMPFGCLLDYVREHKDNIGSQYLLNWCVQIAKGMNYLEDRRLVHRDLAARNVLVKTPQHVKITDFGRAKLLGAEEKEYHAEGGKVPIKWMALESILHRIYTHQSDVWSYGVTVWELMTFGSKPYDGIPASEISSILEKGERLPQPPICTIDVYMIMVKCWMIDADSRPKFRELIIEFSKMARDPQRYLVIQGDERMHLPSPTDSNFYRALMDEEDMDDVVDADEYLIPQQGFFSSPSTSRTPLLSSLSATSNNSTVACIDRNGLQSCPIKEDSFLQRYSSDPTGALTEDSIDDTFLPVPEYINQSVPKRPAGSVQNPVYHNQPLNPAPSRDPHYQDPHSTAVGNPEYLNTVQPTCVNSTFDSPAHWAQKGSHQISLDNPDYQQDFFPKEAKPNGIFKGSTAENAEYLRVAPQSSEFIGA
(§2) Growth and inhibition of growth was assessed by the Cell Titer Glo assay (Promega, Madison, WI) and was performed according to the manufacturer's instructions. The Cell Titer Glo assay is a luminescence-based method used to determine the number of viable cells based on quantitation of the ATP present, which is directly proportional to the amount of metabolically active cells present. Ba/F3 cells of different EGFR genotypes were exposed to compounds for 72 hours and the number of cells used per experiment was determined empirically as has been previously established (Zhou, et al., Nature 2009). All experimental points were set up in triplicates in 384-well plates. […] The curves were fitted using a non-linear regression model with a sigmoidal dose response.
(§3) For inhibitory activity against EGFR mutants, the following designations are used: ≤0·25 μM=A, 0·25 μM˜0.5 μM=B, 0.5 μM˜2.5 μM=C, ≥2.5 μM=D.

The target of assay [2] is EGFR L858R/C797S Ba/F3 cells (Homo sapiens, UniProt P00533, C797S/L858R, cells depend on it). As to the kind of experiment: Ba/F3 cell proliferation (Cell Titer Glo), EGFR L858R/C797S. It counts as cell-based, murine. To be noted: 72 hours exposure, read-out: L858R/C797S (μM), inhibitory activity against EGFR mutants.
Sequence of EGFR L858R/C797S Ba/F3 cells (P00533 whole entry C797S/L858R): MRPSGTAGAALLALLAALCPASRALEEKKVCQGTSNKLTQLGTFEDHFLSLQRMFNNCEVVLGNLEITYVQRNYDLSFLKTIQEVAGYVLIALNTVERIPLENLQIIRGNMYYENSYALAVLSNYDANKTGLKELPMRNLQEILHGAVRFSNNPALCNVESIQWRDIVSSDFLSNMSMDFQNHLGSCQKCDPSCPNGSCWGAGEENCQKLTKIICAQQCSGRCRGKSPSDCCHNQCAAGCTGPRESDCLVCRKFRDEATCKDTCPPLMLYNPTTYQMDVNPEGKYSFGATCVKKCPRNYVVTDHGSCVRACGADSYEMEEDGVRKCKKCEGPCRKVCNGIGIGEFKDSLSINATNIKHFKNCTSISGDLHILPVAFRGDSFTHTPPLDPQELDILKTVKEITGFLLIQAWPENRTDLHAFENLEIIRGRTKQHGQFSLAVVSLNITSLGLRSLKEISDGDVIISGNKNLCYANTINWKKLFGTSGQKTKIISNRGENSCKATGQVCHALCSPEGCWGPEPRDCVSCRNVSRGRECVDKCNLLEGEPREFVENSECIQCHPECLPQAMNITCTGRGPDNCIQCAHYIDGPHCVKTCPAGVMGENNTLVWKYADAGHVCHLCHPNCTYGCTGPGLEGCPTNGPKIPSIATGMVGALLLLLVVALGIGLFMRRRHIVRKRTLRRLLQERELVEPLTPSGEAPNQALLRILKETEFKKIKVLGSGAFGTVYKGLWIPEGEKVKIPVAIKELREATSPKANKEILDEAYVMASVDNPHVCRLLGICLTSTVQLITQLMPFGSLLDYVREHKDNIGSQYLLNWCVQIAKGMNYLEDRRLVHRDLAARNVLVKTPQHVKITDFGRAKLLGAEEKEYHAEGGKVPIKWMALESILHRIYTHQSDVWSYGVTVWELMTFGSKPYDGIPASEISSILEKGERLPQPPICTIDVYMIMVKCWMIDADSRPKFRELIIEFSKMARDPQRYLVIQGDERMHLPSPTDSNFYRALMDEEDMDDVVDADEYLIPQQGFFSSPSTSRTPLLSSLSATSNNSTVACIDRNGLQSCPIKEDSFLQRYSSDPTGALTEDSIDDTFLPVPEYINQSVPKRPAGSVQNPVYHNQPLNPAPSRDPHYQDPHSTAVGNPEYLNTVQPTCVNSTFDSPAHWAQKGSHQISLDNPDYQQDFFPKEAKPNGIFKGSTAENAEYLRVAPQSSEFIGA
Source text: as §1, §2, §3

Bounds are passed on as bounds.

On to `C=CC(=O)N1CCN(c2cc3cnc(Nc4cccc(N5CCS(=O)(=O)CC5)c4)nc3n(C)c2=O)c2cccc(C)c21` [Compound 045], for which the GI50 in assay [1] and in assay [2] was at most 0.25 µM in each case.

Turning to `C=CC(=O)N1CCN(c2cc3cnc(Nc4ccc(OCCN(C)C)cc4)nc3n(CC(C)(C)O)c2=O)c2cccc(C)c21` [Compound 058, 2-[4-[2-(dimethylamino)ethoxy]anilino]-8-(2-hydroxy-2-methyl-propyl)-6-(5-methyl-4-prop-2-enoyl-2,3-dihydroquinoxalin-1-yl)pyrido[2,3-d]pyrimidin-7-one], the GI50 in assay [1] and in assay [2] was at most 0.25 µM each time.

Regarding `C=CC(=O)N1CCN(c2cc3cnc(Nc4ccc(OCCN(C)C)cc4)nc3n(C3CC(OC)C3)c2=O)c2cccc(C)c21` (stereo not drawn) [Compound 071, 2-[4-[2-(dimethylamino)ethoxy]anilino]-8-(3-methoxycyclobutyl)-6-(5-methyl-4-prop-2-enoyl-2,3-dihydroquinoxalin-1-yl)pyrido[2,3-d]pyrimidin-7-one], the GI50 in assay [1] and in assay [2] was at most 0.25 µM throughout.

As to `C=CC(=O)N1CCN(c2cc3cnc(N)nc3n(-c3ccc(N(C)CCN(C)C)cc3)c2=O)c2cccc(C)c21` [Compound 101, 2-amino-8-[4-[2-(dimethylamino)ethyl-methyl-amino]phenyl]-6-(5-methyl-4-prop-2-enoyl-2,3-dihydroquinoxalin-1-yl)pyrido[2,3-d]pyrimidin-7-one], the GI50 was in the range of 0.25 to 0.5 µM in assay [1] and 0.5 to 2.5 µM in assay [2].

In the case of `C=CC(=O)N1CCN(c2cc3cnc(Nc4ccc(OC5CN(C)C5)cc4)nc3n(C)c2=O)c2cccc(C)c21` [Compound 076], the GI50 in assay [1] and in assay [2] was at most 0.25 µM each time.

As to `C=CC(=O)N1CCN(c2cc3cnc(Nc4ccc(N5CCN(C)CC5)cn4)nc3n(C)c2=O)c2cccc(C)c21` [Compound 030], the GI50 in assay [1] and in assay [2] was at most 0.25 µM throughout.

On to `C=CC(=O)N1CCN(c2cc3cnc(N)nc3n(-c3cccc(Cl)c3)c2=O)c2cccc(C)c21` [Compound 091, 2-amino-8-(3-chlorophenyl)-6-(5-methyl-4-prop-2-enoyl-2,3-dihydroquinoxalin-1-yl)pyrido[2,3-d]pyrimidin-7-one], for which the GI50 was at most 0.25 µM in assay [1] and 0.25 to 0.5 µM in assay [2].

For `C=CC(=O)N1CCN(c2cc3cnc(Nc4ccc(N5CCN(C)CC5)cc4F)nc3n(C)c2=O)c2cccc(C)c21` [Compound 036], the GI50 in assay [1] and in assay [2] was at most 0.25 µM each time.

With `C=CC(=O)N1CCN(c2cc3cnc(NC4CCC4)nc3n(-c3ccc(N(C)CCN(C)C)cc3)c2=O)c2cccc(C)c21` [Compound 102, 2-(cyclobutylamino)-8-[4-[2-(dimethylamino)ethyl-methyl-amino]phenyl]-6-(5-methyl-4-prop-2-enoyl-2,3-dihydroquinoxalin-1-yl)pyrido[2,3-d]pyrimidin-7-one], the GI50 in assay [1] and in assay [2] was at most 0.25 µM in each case.

As for `C=CC(=O)N1CCN(c2cc3cnc(Nc4ccc(CS(=O)(=O)NC)cc4)nc3n(C)c2=O)c2cccc(C)c21` [Compound 034, N-methyl-1-[4-[[8-methyl-6-(5-methyl-4-prop-2-enoyl-2,3-dihydroquinoxalin-1-yl)-7-oxo-pyrido[2,3-d]pyrimidin-2-yl]amino]phenyl]methanesulfonamide], the GI50 in assay [1] and in assay [2] was at most 0.25 µM throughout.

Turning to `C=C(F)C(=O)N1CCN(c2cc3cnc(Nc4cnn(CCO)c4)nc3n(C)c2=O)c2ccccc21` [Compound 013, 6-[4-(2-fluoroprop-2-enoyl)-2,3-dihydroquinoxalin-1-yl]-2-[[1-(2-hydroxyethyl)pyrazol-4-yl]amino]-8-methyl-pyrido[2,3-d]pyrimidin-7-one], the GI50 in assay [1] is at most 0.25 µM; in assay [2], 0.25 to 0.5 µM.

For `C=CC(=O)N1CCN(c2cc3cnc(Nc4ccc(OCCN(C)C)cc4)nc3n(C3CCOC3)c2=O)c2cccc(C)c21` (stereo not drawn) [Compound 072, 2-[4-[2-(dimethylamino)ethoxy]anilino]-6-(5-methyl-4-prop-2-enoyl-2,3-dihydroquinoxalin-1-yl)-8-tetrahydrofuran-3-yl-pyrido[2,3-d]pyrimidin-7-one], the GI50 in assay [1] and in assay [2] was at most 0.25 µM in each case.

Regarding `C=CC(=O)N1CCN(c2cc3cnc(NC4CC4)nc3n(C)c2=O)c2cccc(C)c21` [Compound 083, 2-(cyclopropylamino)-8-methyl-6-(5-methyl-4-prop-2-enoyl-2,3-dihydroquinoxalin-1-yl)pyrido[2,3-d]pyrimidin-7-one], the GI50 in assay [1] and in assay [2] was 0.5 to 2.5 µM each time.

Take `C=C(F)C(=O)N1CCN(c2cc3cnc(Nc4ccc(N5CCN(C)CC5)cc4)nc3n(C)c2=O)c2cccc(C)c21` [Compound 028]: the GI50 in assay [1] is at most 0.25 µM; in assay [2], 0.25 to 0.5 µM.

In the case of `C=CC(=O)N1CCN(c2cc3cnc(Nc4ccc(OCCN(C)C)cc4OC)nc3n(C)c2=O)c2cccc(C)c21` [Compound 068], the GI50 in assay [1] and in assay [2] was at most 0.25 µM in each case.

On to `C=C(F)C(=O)N1CCC(c2cc3cnc(Nc4cnn(CCO)c4)nc3n(C)c2=O)c2ccccc21` (stereo not drawn) [Compound 014, 6-[1-(2-fluoroprop-2-enoyl)-3,4-dihydro-2H-quinolin-4-yl]-2-[[1-(2-hydroxyethyl)pyrazol-4-yl]amino]-8-methyl-pyrido[2,3-d]pyrimidin-7-one], for which the GI50 in assay [1] and in assay [2] was at most 0.25 µM each time.

`C=CC(=O)N1CCN(c2cc3cnc(NC4CC4)nc3n(C3CCOCC3)c2=O)c2cccc(C)c21` [Compound 097, 2-(cyclopropylamino)-6-(5-methyl-4-prop-2-enoyl-2,3-dihydroquinoxalin-1-yl)-8-tetrahydropyran-4-yl-pyrido[2,3-d]pyrimidin-7-one]: the GI50 in assay [1] and in assay [2] was at most 0.25 µM in each case.

On to `C=CC(=O)N1CCN(c2cc3cnc(Nc4ccc(N5CCN(C)CC5)cc4OC)nc3n(C)c2=O)c2cccc(C)c21` [Compound 029], for which the GI50 in assay [1] and in assay [2] was at most 0.25 µM throughout.

With `C=CC(=O)N1CCN(c2cc3cnc(Nc4ccc(OCCN(C)C)cc4)nc3n([C@H]3C[C@](C)(O)C3)c2=O)c2cccc(C)c21` [Compound 057, 2-[4-[2-(dimethylamino)ethoxy]anilino]-8-((1r,3r)-3-hydroxy-3-methyl-cyclobutyl)-6-(5-methyl-4-prop-2-enoyl-2,3-dihydroquinoxalin-1-yl)pyrido[2,3-d]pyrimidin-7-one], the GI50 in assay [1] and in assay [2] was at most 0.25 µM each time.

As for `C=CC(=O)N1CCN(c2cc3cnc(Nc4ccc(N5CCN(C)CC5)cc4)nc3n(C3CC(O)C3)c2=O)c2cccc(C)c21` (stereo not drawn) [Compound 046, 8-(3-hydroxycyclobutyl)-2-[4-(4-methylpiperazin-1-yl)anilino]-6-(5-methyl-4-prop-2-enoyl-2,3-dihydroquinoxalin-1-yl)pyrido[2,3-d]pyrimidin-7-one], the GI50 in assay [1] and in assay [2] was at most 0.25 µM throughout.

Regarding `C=CC(=O)N1CCN(c2cc3cnc(NC4CC4)nc3n(-c3ccc(OCCN(C)C)cc3)c2=O)c2cccc(C)c21` [Compound 082, 2-(cyclopropylamino)-8-[4-[2-(dimethylamino)ethoxy]phenyl]-6-(5-methyl-4-prop-2-enoyl-2,3-dihydroquinoxalin-1-yl)pyrido[2,3-d]pyrimidin-7-one], the GI50 in assay [1] and in assay [2] was at most 0.25 µM each time.

In the case of `C=CC(=O)N1CCN(c2cc3cnc(Nc4ccc(OCCN(C)C)cc4)nc3n([C@H]3C[C@@](C)(O)C3)c2=O)c2cccc(C)c21` [Compound 056, 2-[4-[2-(dimethylamino)ethoxy]anilino]-8-((1s,3s)-3-hydroxy-3-methyl-cyclobutyl)-6-(5-methyl-4-prop-2-enoyl-2,3-dihydroquinoxalin-1-yl)pyrido[2,3-d]pyrimidin-7-one], the GI50 in assay [1] and in assay [2] was at most 0.25 µM in each case.

With `C=CC(=O)N1CCN(c2cc3cnc(N)nc3n(-c3ccc(OCCN(C)C)cc3)c2=O)c2cccc(C)c21` [Compound 080, 2-amino-8-[4-[2-(dimethylamino)ethoxy]phenyl]-6-(5-methyl-4-prop-2-enoyl-2,3-dihydroquinoxalin-1-yl)pyrido[2,3-d]pyrimidin-7-one], the GI50 in assay [1] and in assay [2] was at most 0.25 µM each time.

As to `C=CC(=O)N1CCN(c2cc3cnc(N)nc3n(-c3ccc(OCCN(C)C)nc3)c2=O)c2cccc(C)c21` [Compound 079], the GI50 is at most 0.25 µM in assay [1] and 0.5 to 2.5 µM in assay [2].
